Results published in ChEMBL document CHEMBL1158768, “Isolation and structure elucidation of the new fungal metabolite (-)-xylariamide A” (J Nat Prod, 2005).

Experiments:
Type in all cases: organism-based
Conditions in all cases: in vivo
Artemia salina [1] = experiment: Toxicity in Artemia salina at 20 ug/mL
Artemia salina [2] = experiment: Toxicity in Artemia salina at 200 ug/mL
Artemia salina [3] = experiment: Toxicity in Artemia salina

SMILES | Activity (Artemia salina [1]) [%] | Activity (Artemia salina [2]) [%] | Activity (Artemia salina [3])
COC(=O)/C=C/C(=O)N[C@H](Cc1ccc(O)c(Cl)c1)C(=O)O [(-)-XYLARIAMIDE A] | 0 | 71 | 
COC(=O)/C=C/C(=O)N[C@@H](Cc1ccc(O)c(Cl)c1)C(=O)O [(+)-XYLARIAMIDE A] |  |  | Non-toxic
